Data: ChEMBL document CHEMBL3044805, “A comparative study of the efficiency of several sources of induced resistance to powdery mildew (Blumeria graminis f. sp. tritici) in wheat under field conditions” (2009)

Experiments:
Triticum aestivum [1] = assay: (§1) Induction of systemic acquired resistance against Blumeria graminis f. sp. tritici in Triticum aestivum (wheat) plants on Kanzler cultivar assessed as decrease in disease severity of powdery mildew in leaves […] (wheat) exposed to 1.2 mM compound for 3 years by small-plot experiment relative to control; type: functional; parameters: scale not given: the % may be the effect or the level left
Triticum aestivum [2] = assay: as §1, with “0.3 M” for “1.2 mM”; type: functional; parameters: scale not given: the % may be the effect or the level left

| SMILES | Activity (Triticum aestivum [1]) [%] | Activity (Triticum aestivum [2]) [%] |
| --- | --- | --- |
| CSC(=O)c1cccc2nnsc12 [ACIBENZOLAR-S-METHYL] | 14.5 | – |
| C[N+](C)(C)CC(=O)O [BETAINE] | – | 31.8 |
